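Cells were grown in 96-well plates and exposed to each compound for 48 hours at five concentrations; endpoints were interpolated linearly between bracketing concentrations, or set to the highest concentration if not reached. At the GI50, growth is halved.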 Activity calls are given as the source filed them. Rule as the data show it: active = GI50 up to about 1.1 µM and inactive = higher.
Tests used:
Test in all cases: DTP human tumour cell line panel, 48 h
DMS-273 = system: DMS-273
EKVX = system: EKVX
HCT-15 = system: HCT-15
HOP-62 = system: HOP-62
HT-29 = system: HT-29
LXFL 529 = system: LXFL 529
MOLT-4 = system: MOLT-4
NCI-H226 = system: NCI-H226
OVCAR-8 = system: OVCAR-8
RXF 393 = system: RXF 393
SF-268 = system: SF-268
SK-MEL-2 = system: SK-MEL-2
UACC-62 = system: UACC-62
CAKI-1 = system: CAKI-1
DLD-1 = system: DLD-1
IGROV-1 = system: IGROV-1
SF-539 = system: SF-539
A498 = system: A498
MCF7 = system: MCF7
PC-3 = system: PC-3

Structure (SMILES)	GI50 (DMS-273)	GI50 (EKVX)	GI50 (HCT-15) [µM]	GI50 (HOP-62)	GI50 (HT-29)	GI50 (LXFL 529)	GI50 (MOLT-4)	GI50 (NCI-H226)	GI50 (OVCAR-8)	GI50 (RXF 393)	GI50 (SF-268)	GI50 (SK-MEL-2)	GI50 (UACC-62)	GI50 (CAKI-1)	GI50 (DLD-1)	GI50 (IGROV-1)	GI50 (SF-539)	GI50 (A498)	GI50 (MCF7)	GI50 (PC-3)
CC(=O)O[C@]12CCCCC1C1(O)C(O)CCCC[C@H]12 (stereo partly drawn)	> 100 µM (inactive)	> 100 µM (inactive)	> 100	> 100 µM (inactive)	> 100 µM (inactive)	> 100 µM (inactive)	> 100 µM (inactive)	> 100 µM (inactive)	> 100 µM (inactive)	> 100 µM (inactive)	> 100 µM (inactive)	> 100 µM (inactive)	> 100 µM (inactive)							
CC(=O)OC12C=CC(=O)N1c1ccccc1C(=O)O2 (stereo not drawn)	> 100 µM (inactive)	> 100 µM (inactive)	> 100	> 100 µM (inactive)	> 100 µM (inactive)	> 100 µM (inactive)	> 100 µM (inactive)	> 100 µM (inactive)	> 100 µM (inactive)	> 100 µM (inactive)	> 100 µM (inactive)	> 100 µM (inactive)	> 100 µM (inactive)	> 100 µM (inactive)	> 100 µM (inactive)	> 100 µM (inactive)	> 100 µM (inactive)			
O=C1c2ccccc2C(=O)N1CCN(CCN1C(=O)c2ccccc2C1=O)Cn1cccn1	46.1 µM (inactive)	> 100 µM (inactive)	> 100	> 100 µM (inactive)		> 100 µM (inactive)	> 100 µM (inactive)		> 100 µM (inactive)	> 100 µM (inactive)	> 100 µM (inactive)	> 100 µM (inactive)	28.2 µM (inactive)	> 100 µM (inactive)	31.9 µM (inactive)			> 100 µM (inactive)		
CCc1c(-c2coc(CC/C(C)=C/c3ccccc3)n2)oc(OC)c(C)c1=O	10.1 µM (inactive)	25.4 µM (inactive)	18.7	> 40 µM (inactive)	24.8 µM (inactive)	5.96 µM (inactive)	10.9 µM (inactive)	68.2 µM (inactive)	19.9 µM (inactive)		> 100 µM (inactive)	60.1 µM (inactive)	17.6 µM (inactive)	> 52.2 µM (inactive)	26.8 µM (inactive)	> 83.8 µM (inactive)	28 µM (inactive)	99.8 µM (inactive)		
NC(=O)c1[nH]nc(C2OC(CO)C(O)C2O)c1O (stereo not drawn)	0.713 µM (active)	52.6 µM (inactive)	0.5	2.68 µM (inactive)	0.851 µM (active)		0.561 µM (active)	181 µM (inactive)	0.5 µM (active)	8.99 µM (inactive)	4.57 µM (inactive)	84.7 µM (inactive)	4.38 µM (inactive)	0.689 µM (active)	1.45 µM (inactive)	0.776 µM (active)	16.9 µM (inactive)	60.5 µM (inactive)	1.79 µM (inactive)	3.02 µM (inactive)
Cc1cc(NS(=O)(=O)c2ccc(Nc3c4ccccc4nc4c(C(=O)NCCN(C)C)cccc34)cc2)no1	2.86 µM (inactive)	5.09 µM (inactive)	18.5	2.09 µM (inactive)	6.03 µM (inactive)	3.6 µM (inactive)	0.208 µM (active)	0.524 µM (active)	4.18 µM (inactive)	5.6 µM (inactive)	1.78 µM (inactive)	6.43 µM (inactive)	2.55 µM (inactive)		11.8 µM (inactive)	2.37 µM (inactive)	2.12 µM (inactive)			
C=CC1(C)CCC(C(C)C(=O)C(C=C(C)C)OC(C)=O)C12C(=O)Oc1ccccc1C2=O (stereo not drawn)	23.4 µM (inactive)	60.8 µM (inactive)	38.5	35.2 µM (inactive)	35.3 µM (inactive)	37.8 µM (inactive)	26.2 µM (inactive)	58.5 µM (inactive)	37.6 µM (inactive)	26.7 µM (inactive)	62.1 µM (inactive)	32.7 µM (inactive)	49 µM (inactive)		54.5 µM (inactive)	72.3 µM (inactive)	> 100 µM (inactive)			
CC1C=C[C@H](Sc2ccccc2)CC[C@@]1(C)O (stereo partly drawn)		> 100 µM (inactive)	> 100	> 100 µM (inactive)	> 100 µM (inactive)	99.3 µM (inactive)	35.1 µM (inactive)	> 100 µM (inactive)	> 100 µM (inactive)	76.2 µM (inactive)		> 100 µM (inactive)	86.1 µM (inactive)	> 100 µM (inactive)	> 100 µM (inactive)	> 100 µM (inactive)	> 100 µM (inactive)	> 100 µM (inactive)		
